Results on eight molecules are retold here after article PMC7763155, “Design and Characterisation of Inhibitory Peptides against Bleg1_2478, an Evolutionary Divergent B3 Metallo-β-lactamase” (Molecules, 2020).

Where two headings read alike, the source gives them in different places. No end group written: not given here.

One test deals with Class A SBLs. To be noted: in words; ref [17],[18],[19]; cited from earlier work. The source says:
(§1) AMR among bacteria can be acquired through various means, i.e., through: (1) hydrolysis or inactivation of antibiotics by synthesizing enzymes; (2) redox process by exploiting the oxidation or reduction of the antibiotics; (3) modification of antibiotics by chemical substitution; (4) modification of the inhibition binding site in the target; (5) mutations on genes that encode the target or efflux pump that affect antibiotics uptake; (6) horizontal gene transfer where resistant genes are transferred from one pathogen to another via transduction, conjugation or ...

The subject of the next test is MBLs. To be noted: in words; ref [20]; cited from earlier work.
Text: as §1

Test [1] deals with T1, Bleg1_2478 (Shouchella lehensis (Bacillus lehensis), UniProt A0A060M4R1). Description: Inhibitory assay of designed peptides against Bleg1_2478 (ampicillin hydrolysis). It counts as biochemical, Bacillus lehensis G1. Conditions: pH 7.0, 30 °C, triplicates. The procedure: The ability of the peptides in inhibiting Bleg1_2478 was investigated via inhibitory assay. Firstly, enzymatic assay of purified Bleg1_2478 recombinant protein using ampicillin as the substrate was performed, serving as the positive control. The assay was carried out based on the method by. All assays were performed at 30 °C in total assay volume of 3 mL containing 20 mM sodium phosphate (Na2HPO4-NaH2PO4) (pH 7.0), 20 µg/mL BSA, 100 µM ZnSO4, 10 µM Bleg1_2478 and 100 µM ampicillin. The reaction was monitored by recording the absorbance at 235 nm every 1 min for a total duration of 6 min using a 50 Bio UV Visible Spectrophotometry. […] All assays were done in triplicates.

For test [2], the target named is T1, Bleg1_2478. Description: Isothermal titration calorimetry (ITC) with Bleg1_2478. It counts as binding, Bacillus lehensis G1. The procedure: ITC measurement was performed at 30 °C with nanoisothermal titration calorimetry, TA Instrument, USA at Malaysian Genome Institute. The peptides were dissolved in 20 mM sodium phosphate buffer (Na2HPO4-NaH2PO4) (pH 7.0). Bleg1_2478 protein sample, the selected peptide inhibitors and 20 mM sodium phosphate buffer (Na2HPO4-NaH2PO4) (pH 7.0) were firstly degassed by using Themovac Unit. The experiment was carried out at 30 °C with stirring speed of 300 rpm. The calorimetry data were subsequently analysed using NanoAnalyze Software v3.8.0. (New Castle, DE, USA)

Test [3] has as its target T1, Bleg1_2478. Conditions: in words; ref [22]; cited from earlier work. The text has this:
Biochemical characterization of purified recombinant Bleg1_2478 further confirmed that it was indeed capable of degrading β-lactam antibiotics, with ampicillin ...

For test [4], the target named is Bleg1_2478 recombinant protein (Bacillus lehensis G1).
The target is the same in test [5]. Briefly: ITC; nano isothermal titration calorimetry (TA Instruments), 30 °C, 20 mM sodium phosphate buffer pH 7.0, stirring 300 rpm; which partner was in the cell and the concentrations are not stated.
The target is the same in test [6]. The source holds these as a separate data set.
The mark [7] stands for this setting: 10 µM peptide, 10 µM enzyme, 100 µM ampicillin.
Setting [8] is: ITC, 30 °C, 20 mM sodium phosphate pH 7.0, 300 rpm, read-out: Dissociation constant, Kd.

As to `O=C(O)[C@H]1/C(=C/CO)O[C@@H]2CC(=O)N21` [clavulanate], the “Effectiveness against Class A SBLs” value with Class A SBLs is listed as “effective”. Besides, in the test with MBLs, the “Effectiveness against MBLs” value was “not”.
`CC1(C)[C@H](C(=O)O)N2C(=O)C[C@H]2S1(=O)=O` [sulbactam]: the “Effectiveness against Class A SBLs” value in the test with Class A SBLs is recorded as “effective”. In the test with MBLs, the “Effectiveness against MBLs” value was “not”.
As to RSWPWH [RSWPWH], the “Inhibition of Bleg1_2478” value worked out at 12% on Bleg1_2478 [1] (0.75 µM peptide) and 92% on Bleg1_2478 [1] (setting [7]). Further, the Kd on Bleg1_2478 [2] (setting [8]) was 497 nM. The “Fold increase in binding strength (Kd)” value on Bleg1_2478 [2] (ITC, compared to ampicillin) is recorded as 34 fold.
For `CC1(C)S[C@@H]2[C@H](NC(=O)[C@H](N)c3ccccc3)C(=O)N2[C@H]1C(=O)O` [Ampicillin, ampicillin, reference compound], the Substrate preference entry at Bleg1_2478 [3] is recorded as “preferred substrate”. The molecule also gave a Kd on Bleg1_2478 [2] of 1470 nM. The “Entropy, ΔS” value on Bleg1_2478 [2] (ITC, 30 °C, 20 mM sodium phosphate pH 7.0) is −248.00 J/mol·K. For the same molecule, the “Association constant, Ka” value on Bleg1_2478 [2] (ITC, 30 °C, 20 mM sodium phosphate pH 7.0, 300 rpm) worked out at 680000 M⁻¹. Moreover, the “Number of binding sites from stoichiometry” value on Bleg1_2478 [2] (ITC, in words) is “one binding site”.
Take SSWWDR [SSWWDR]: the “Inhibition of Bleg1_2478” value at Bleg1_2478 [1] (0.25 µM peptide) worked out at 4%; at Bleg1_2478 [1] (0.50 µM peptide) it was 48%; on Bleg1_2478 [1] (0.75 µM peptide), 64%; on Bleg1_2478 [1] (setting [7]), 88%; at Bleg1_2478 [1] (20 µM peptide, 10 µM enzyme, 100 µM ampicillin) it was 96%. Also, the equilibrium dissociation constant (Kd) at Bleg1_2478 [2] (setting [8]) is 992 nM. Also, the “Fold increase in binding affinity (Ka)” value at Bleg1_2478 [2] (ITC, compared to ampicillin) came to 1.5 fold. The “Fold increase in binding strength (Kd)” value at Bleg1_2478 [2] (ITC, compared to ampicillin) stood at 68 fold.
On to `C[C@]1(Cn2ccnn2)[C@H](C(=O)O)N2C(=O)C[C@H]2S1(=O)=O` [tazobactam], for which the “Effectiveness against Class A SBLs” value in the test with Class A SBLs is reported as “effective”. Also, the “Effectiveness against MBLs” value in the test with MBLs was “not”.
As for RSWPWH [RSWPWH inhibitory peptide], the IC50 of inhibition of Bleg1 2478 enzymatic activity (hydrolysis of 100 µM ampicillin by 10 µM Bleg1 2478, absorbance at 235 nm, 30 °C, pH 7.0) in test [4] stood at 0.9 µM. In test [5], the Ka turned out to be 2.01e+06 M⁻¹, the Kd worked out at 497 nM and the stoichiometry N worked out at 0.941. Besides, the percent inhibition of Bleg1 2478 activity on ampicillin at 0.75 to 20 µM peptide (12% at 0.75 µM, 54% at 0.90 µM, 68% at 1 µM, 92% at 10 µM, the same at 20 µM) in test [6] turned out to be 92%.
In the case of SSWWDR [SSWWDR inhibitory peptide], in test [4], the IC50 of inhibition of Bleg1 2478 enzymatic activity (hydrolysis of 100 µM ampicillin by 10 µM Bleg1 2478, absorbance at 235 nm, 30 °C, pH 7.0) worked out at 0.5 µM. Besides, in test [5], the Ka is 1.01e+06 M⁻¹, the dissociation constant (Kd) stood at 992 nM and the stoichiometry N came to 0.722. Besides, the percent inhibition of Bleg1 2478 activity on ampicillin at 0.25 to 20 µM peptide (4% at 0.25 µM, 48% at 0.50 µM, 64% at 0.75 µM, 76% at 1 µM, 88% at 10 µM, 96% at 20 µM) in test [6] was 96%.
